Source: patent US20110294794A1, “TREATMENT OF PROTEINOPATHIES USING A FARNESYL TRANSFERASE INHIBITOR” (Link Medicine Corporation, priority 2008, published 2011)
Entries after “also recorded” stand apart in the source; their conditions may differ. Like-named read-outs stand apart in the source and are kept apart here.

How the values were obtained:
GGTase [1] = assay: In vitro GGTase inhibition by LNK-754 (Table 5A); assay type: biochemical
Excerpt: (§1) The selectivity of LNK-754 for FTase over GGTAse is shown below in Table 5A.

GGTase [2] = target: T1, GGTase (Homo sapiens, UniProt P49354+P53609); assay: In vitro GGTase inhibition by LNK-754 (Table 5A); assay type: biochemical; details: general statement
Excerpt: as §1

α-synuclein = assay: Masliah D-line human WT α-synuclein transgenic mouse, α-synuclein immunoreactivity / ELISA; assay type: in vivo; details: for number of α-synuclein positive neurons: lower-dose trial (FIG. 2B); for levels of α-synuclein in the hippocampus / α-synuclein inclusions vs. transgenic animals administered vehicle alone: α-synuclein transgenic mice
Experimental: Animals and treatments: Male and female human WT alpha-synuclein over-expressing transgenic mice^32 at 6 months of age were given vehicle (10% beta-cyclodextrin) or LNK-754-TS (0.09, 0.9 and 9 mg/kg) per oral gavage twice daily for 3 months or animals at 7 months of age were given vehicle (2.5% beta-cyclodextrin) or LNK-754-TS (2 mg/kg) once every three days for 3 months. Male and female TAU transgenic mice expressing TAU441 bearing the missense mutations V337M^50 and R406W under the control of the murine Thy-1 promoter with a CB6xC57BL/6 background were 5 months old at the time when the oral treatment for three months with LNK-754-TS (0.9 and 0.09 mg/kg) as well as vehicle (2.5% beta-cyclodextrin) was started. Female human APP/PS1 (APP (London V7171)/PS1(A246E)) over-expressing transgenic mice were treated with LNK-754-TS (0.9 mg/kg) or vehicle (2.5% beta-cyclodextrin) for 2 months or 12 days.
Immunohistochemistry and quantification of stained cells: For evaluation of α-synuclein immunoreactivity (IR), 5 sagittal cryo-cut sections (10 μm slice thickness) from five different layers were used for counting of IR cells in the cortex and hippocampus. Brain sections were stained with a monoclonal human α-synuclein specific antibody (Alexis®; Cat# 804-258-L001; dilution 1:5), followed by a secondary Ab Cy 2-Goat Anti-Rat (Jackson ImmunoResearch®; dilution 1:200). IR positive cells were quantified using specialized image analysis software (Image Pro Plus, version 4.5.1.29). For Tau transgenic animals, 5 μm thick coronal paraffin sections were stained with the monoclonal mouse anti-human TAU-antibodies (AT180—1:100; HT—1:500) and visualized using an anti-mouse Cy3 secondary antibody (1:500, Jackson laboratories®). Images were evaluated with ImageProPlus (version 6.2) image analysis software. For APP/PS1 transgenic animals sagittal hemisections (40 μm) were collected and processed for Aβ immunohistochemistry using an 6E10 antibody, Thioflavin-S staining Primary antibodies were detected by the ABC method.
ELISA quantification of α-Synuclein in the α-Synuclein transgenic animals: Brain homogenate was centrifuged and the supernatant saved as fraction F1. The pellet was washed then resuspended and saved as fraction F2. Plates (Nunc, 464718) were coated with SYN-1 (1:1000, BD Transduction Labs, 610787). Monomeric recombinant α-synuclein was included as an internal standard. Biotinylated antibody FL-140 (1:300, Santa Cruz Biotechnology, sc-10717-B) and ExtrAvidin-Alkaline phosphatase (3:5000, Sigma, E2636) was added followed by pNPP substrate solution (Sigma, N1891). Raw absorbance (405 nm) was then normalized to the total protein concentration of each sample. In the APP/PS1 transgenic animal, brains were homogenized and the supernatant, Faction 1, was separated from the pellet. The pellets were further processed with addition of NP40 and Triton X-100. The supernatant was separated from the pellet as the insoluble membrane, Fraction 2, and was dissolved in 8M Guanidine. To quantify the amount of human Aβ-40 and Aβ-42, ELISA kits were used (The Genetics Company, Zurich, Switzerland).
In FIG. 2 is shown efficacy data for LNK-754-TS in the Masliah D-line transgenic α-synuclein mouse (an accepted model of synucleinopathies). Two trials are shown, the first (FIG. 2A) at higher doses of LNK-754-TS: 45 mg/kg and 9 mg/kg. […] The second trial (FIG. 2B) explores the low dose range for efficacy in the α-synuclein models. […]
After dosing with LNK-754-TS for three months (twice daily at 0.09 mg/kg or 0.9 mg/kg), α-synuclein accumulation in the brain was analyzed by immunohistochemical (human specific α-synuclein immunoreactivity) and biochemical (α-synuclein ELISA) means. […]

[3] = system: 3T3 H-ras (61L) xenograft tumor; details: continuous infusion, cited from earlier work
LC3-II = LC3-II protein level (autophagic flux) in SH-SY5Y cells with or without bafilomycin A1; assay type: cell-based, human; details: bafilomycin A1 (10 nM) alone, without test compound
Excerpt: Data are represented as mean+/−SEM with statistical significance by paired student's t-test (n=4, p<0.05).
The observed increase in LC3-positive autophagosomes could result, in principle, from either an increased flux through the autophagy pathway or decreased autophagosome degradation (Pankiv, S., et al. J Biol Chem 282, 24131-24145 (2007); Kamada, Y., et al. J Cell Biol 150, 1507-1513 (2000)). […] In order to ascertain an increase in autophagic flux, cells were co-treated with LNK-754-TS and an inhibitor of autophagosome-lysosome fusion, bafilomycin A1 (10 nM). Bafilomycin treatment alone caused a 100% increase in the amount of LC3-II, consistent with the fact that it inhibits autophagosome degradation (FIG. 8c).
(§2) The mechanism of autophagy stimulation by LNK-754-TS appears distinct from that of the drug rapamycin. Rapamycin is a well-characterized autophagy stimulator that acts through inhibition of mTOR, a kinase involved in nutrient signaling and regulation of cell growth and survival. […] To further contrast the mechanism of autophagy stimulation by LNK-754-TS to that of rapamycin, a collection of mRNA transcripts of autophagy proteins were measured (FIG. 8d). Selected mRNAs from untreated SH-SY5Y cells were compared to mRNAs from cells treated with LNK-754-TS (100 nM), tipifarnib (100 nM), or rapamycin (1 μM).

GGTase [4] = target: T1, GGTase; details: general statement; cited from earlier work
Atg1 = assay: mRNA levels of autophagy-related genes (Atg1) in SH-SY5Y cells; assay type: cell-based, human; details: 100 nM (FIG. 8d)
Experimental: (§3) Quantitative real-time PCR: Gene expression profiles were done by qPCR on series of known autophagy genes. RNA was extracted with Tri-reagent (Sigma), and cDNAs generated using iScript (Biorad). qPCR analysis was carried out in a 96 well plate using an iCycler (BioRad, Hercules, Calif.), and iQ SYBR Green Supermix (Biorad) according to the manufacturer's specifications.
as §2

[5] = Pharmacokinetics of Zarnestra in C57BL/6 mice, oral administration; assay type: in vivo, mouse; details: 5 mg/kg p.o. single dose
Experimental: LLOQ: brain 4 ng/g; plasma 50 ng/ml.
The pharmacokinetic profiles of LNK-754-TS and Zarnestra® were analyzed using methods known in the art. The results are shown in FIGS. 13-14 and the tables below.

LC3 = assay: Punctate LC3 immunostaining in SH-SY5Y cells; assay type: cell-based, human; details: 100 nM (FIG. 8b)
Experimental: (§4) Cell culture and immunocytochemistry: SH-SY5Y cells were grown in DMEM medium supplemented with 10% FBS and 1% pen/strep at 37° C. and 5% CO2. Cells were differentiated with 10 μM retinoic acid for 48 hr, then treated with the either rapamycin (100 nM or 1 μM) or with 100 nM of either LNK-754-TS or Tipifarnib for 48-72 hr. Cells were then fixed with 4% paraformaldehyde and stained for LC3 (Novus biological, NB100-2331, dilution 1:800) followed by secondary Alexa-564 anti-Rabbit (A-11011).
(§5) Autophagy was measured in a neuroblastoma cell culture system by three distinct approaches: quantitation of autophagy-related mRNA's, immunofluorescence microscopy of autophagosomes, and biochemical detection of the microtubule-associated protein 1 light chain 3 (LC3) a key protein that is required for autophagosome formation. Differentiated human neuroblastoma cells (SH-SY5Y) were treated for 72 hr with LNK-754-TS (0.01-100 nM), Zarnestra® (also referred to herein as tipifarnib) (100 nM) or rapamycin (1 μM).

LC3 mRNA = LC3 mRNA (qPCR) in differentiated SH-SY5Y cells; assay type: cell-based, human; details: 100 nM, 72 hr
Experimental: as §4, §3
Such increases in LC3 mRNA levels are associated in the literature with stimulation of macroautophagy. This supports the hypothesis that at doses as low as 1 nM in this in vitro system there is stimulation of autophagy in these cells.
as §5

In the case of `C#Cc1cccc(-c2cc(=O)n(C)c3ccc([C@](O)(c4ccc(Cl)cc4)c4cncn4C)cc23)c1` [LNK-754, (R)-6-[(4-chlorophenyl)-hydroxyl-(1-methyl-1-H-imidazol-5-yl)-methyl]-4-(3-ethynylphenyl)-1-methyl-2-(1H)-quinonlinone], the GGTI/FTI (GGTase [1]; H-Ras substrates) is reported as 580, the GGTI/FTI (GGTase [1]; K-Ras substrates) is reported as 40.11 and the GGTase inhibitory activity (GGTase [2]) is reported as “little to no”. The “number of α-synuclein positive neurons” value (α-synuclein; 0.09 mg/kg) was “significantly lowered”, the “number of α-synuclein positive neurons” value (α-synuclein; 0.9 mg/kg) was “significantly lowered” and the “number of α-synuclein positive neurons in the brain” value (“number … in the brain” below) (α-synuclein; 9 mg/kg PO BID 3 months, higher-dose trial (FIG. 2A)) was “significantly lower”. For the same molecule, the “number … in the brain” value (α-synuclein; 45 mg/kg PO BID 3 months, higher-dose trial (FIG. 2A)) was “did not significantly lower; also recorded: not found to significantly lower”, the “number … in the brain” value (α-synuclein; lower doses, 0.09 mg/kg to 9 mg/kg (FIGS. 2A and 2B)) was “significant reduction” and the “levels of α-synuclein in the hippocampus” value (α-synuclein) was “decrease”. For the same molecule, the “α-synuclein inclusions vs. transgenic animals administered vehicle alone” value (α-synuclein) was “fewer”, the “continuous serum level at which significant inhibition of tumor growth was seen” value ([3]; 7 day treatment) was “above 100 ng/mL” and the “inhibition of Ras farnesylation at which significant inhibition of tumor growth was seen” value ([3]; tumor tissue) was “at least 50%”.

With `CO/C1=C\C(C)=C\[C@@H](C)[C@@H](O)[C@@H](C)C/C(C)=C/C=C/[C@H](OC)[C@@H]([C@@H](C)[C@@H](O)[C@H](C)[C@@]2(O)C[C@@H](O)[C@H](C)[C@@H](C(C)C)O2)OC1=O` [bafilomycin A1, reference compound] the “increase in the amount of LC3-II” value (LC3-II) was 100%.

In the case of `Cn1cncc1[C@@](N)(c1ccc(Cl)cc1)c1ccc2c(c1)c(-c1cccc(Cl)c1)cc(=O)n2C` [Zarnestra®, (R)-6-(Amino(4-chlorophenyl)(1-methyl-1H-imidazol-5-yl)methyl)-4-(3-chlorophenyl)-1-methyl-2(1H)-quinolinone, reference compound], the GGTase inhibitory activity (GGTase [4]) is listed as “little to no”, the “levels of α-synuclein in the hippocampus” value (α-synuclein) is listed as “decrease” and the “α-synuclein inclusions vs. transgenic animals administered vehicle alone” value (α-synuclein) is listed as “fewer”. The “mRNA levels of a set of autophagy-related genes” value (Atg1) was “unaffected”, the t1/2z ([5]; Blood) was 1.31 h and the “AUC(0-t)” value ([5]; Brain) was 44.50 ng·h/g. The “AUC(0-[…])” value ([5]; Brain) was 86.86 ng·h/g, the t1/2z ([5]; Brain) was 8.10 h and the “punctate LC3 immunostaining (number of LC3-positive puncta)” value (LC3) was “distinct increase”. For the same molecule, the “punctate LC3 immunostaining (number of LC3-positive puncta)” value (LC3; listed as tipifarnib) was “increased”, the “LC3 mRNA level” value (LC3 mRNA) was “also works; also recorded: upregulated” and the “LC3 mRNA level” value (LC3 mRNA; listed as tipifarnib) was “increased”.
